Results from BindingDB's records for doi:10.7270/Q2TX3CTT (Broad Institute, 2010).
Counter-ions that a name gives are not always drawn.

Biological target: Glycogen synthase kinase-3 beta (Homo sapiens, UniProt P49841)
Assay: concentration-response blocking of human GSK3B – biochemical, luminescence, cell-free homogeneous, retest, dose response (AID 434954)

Chain of Glycogen synthase kinase-3 beta (P49841 whole entry): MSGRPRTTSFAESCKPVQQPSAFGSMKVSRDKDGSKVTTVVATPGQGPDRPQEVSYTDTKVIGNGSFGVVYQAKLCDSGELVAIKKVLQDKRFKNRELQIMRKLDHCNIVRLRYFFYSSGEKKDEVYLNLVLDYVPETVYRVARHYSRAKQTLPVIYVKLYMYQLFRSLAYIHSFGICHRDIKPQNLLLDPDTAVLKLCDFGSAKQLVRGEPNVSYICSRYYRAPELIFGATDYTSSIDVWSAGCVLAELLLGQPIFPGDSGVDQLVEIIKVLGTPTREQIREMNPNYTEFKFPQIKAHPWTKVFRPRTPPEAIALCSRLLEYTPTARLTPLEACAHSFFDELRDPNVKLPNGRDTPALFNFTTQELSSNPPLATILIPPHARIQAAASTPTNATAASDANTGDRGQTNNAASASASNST

| EC50 [µM] | SMILES |
| --- | --- |
| > 300 | CCN(CC)C(=O)COC(=O)c1ccc(O)cc1 [[2-(diethylamino)-2-oxoethyl] 4-hydroxybenzoate] |
| > 300 | CC(C)=CCc1c(O)cc2c(=O)c3ccc(O)cc3oc2c1O [SMR000470963] |
| 108 | Nc1nc(NCc2ccccc2)nc(Nc2cccc(F)c2)c1[N+](=O)[O-] [N-Benzyl-N'-(3-fluoro-phenyl)-5-nitro-pyrimidine-2,4,6-triamine] |
| > 300 | Cc1cc(C)n2nc(C(=O)OCC(=O)NC(=O)c3ccccc3)nc2n1 [SMR000716574] |
| > 300 | CC[n+]1c(/C=C/N(C)c2ccccc2)oc2ccccc21 [SMR000184373] |
| 2.81 | COc1cccc(/C=C2/Sc3ccc(C(=O)NCCN4CCCC4)cc3NC2=O)c1 [(2E)-2-[(3-methoxyphenyl)methylidene]-3-oxo-N-(2-pyrrolidin-1-ylethyl)-4H-1,4-benzothiazine-6-carboxamide] |
| > 300 | Cn1nc(C(F)(F)F)c2cc(NC(=O)OCc3ccc(C(C)(C)C)cc3)sc21 [(4-tert-butylphenyl)methyl N-[1-methyl-3-(trifluoromethyl)thieno[2,3-c]pyrazol-5-yl]carbamate] |
| > 300 | CCCCC(=O)Nc1ncc(S(=O)(=O)c2ccc([N+](=O)[O-])cc2)s1 [N-[5-(4-nitrophenyl)sulfonyl-2-thiazolyl]pentanamide] |
| > 300 | COc1ccc(C2c3c(n[nH]c3C)N=C3CCCC(=O)C32)cc1OC (stereo not given) [SMR000353889] |
| > 300 | COCCN1C(=O)N[C@@H](c2cccc(C(F)(F)F)c2)[C@H](C(C)=O)[C@H]1C [(4R,5S,6R)-5-acetyl-1-(2-methoxyethyl)-6-methyl-4-[3-(trifluoromethyl)phenyl]-1,3-diazinan-2-one] |
| > 300 | CC(=O)NC(=S)Nc1ccccc1N1CCCCC1 [SMR000292167] |
| > 300 | CS(=O)(=O)N(Cc1ccccc1)c1ccc(C(=O)Nc2ccccc2Sc2ccccc2)cc1 [4-[methylsulfonyl-(phenylmethyl)amino]-N-(2-phenylsulfanylphenyl)benzamide] |
| > 300 | Cc1ccc(C=NNC(=O)COc2ccc(C)cc2[N+](=O)[O-])cc1 [2-(4-methyl-2-nitrophenoxy)-N'-[(1Z)-(4-methylphenyl)methylene]acetohydrazide] |
| > 300 | COc1cccc(C(=O)Nc2ccc(C(=O)NCC(C)C)cc2)c1 [SMR000292523] |
| > 300 | CCn1c(SCC(=O)Nc2ccccc2Cl)nnc1C1CC1 [N-(2-chlorophenyl)-2-[(5-cyclopropyl-4-ethyl-1,2,4-triazol-3-yl)sulfanyl]ethanamide] |
| 29.8 | CSc1nc(NCCCO)c2c3c(sc2n1)CN(C)CC3 |
| 83.9 | O=C(NC(=S)Nc1cccc2c(O)cccc12)c1ccco1 [N-[(5-hydroxynaphthalen-1-yl)carbamothioyl]furan-2-carboxamide] |
| > 300 | CCn1cc(CN2CCC(n3nccc3NC(=O)CCCc3ccccc3)CC2)cn1 [N-[2-[1-[(1-ethylpyrazol-4-yl)methyl]piperidin-4-yl]pyrazol-3-yl]-4-phenyl-butanamide] |
| > 300 | CC(N=O)c1ncc(C(F)(F)F)cc1Cl (stereo not given) [MLS000763457] |
| > 300 | CCCCc1cc(=O)oc2cc(OS(C)(=O)=O)ccc12 [(4-butyl-2-oxidanylidene-chromen-7-yl) methanesulfonate] |
| > 300 | Cc1ccc(S(=O)(=O)N(C)CC(=O)N2CCCc3ccccc32)cc1 [SMR000076264] |
| > 300 | COc1ccc(NC(=O)c2ccc(-c3ccc(OC)cc3)s2)cc1 [SMR000335035] |

| EC50 [µM] | SMILES |
| --- | --- |
| 37.6 | c1ccc(Nc2ccnc(Nc3ccccc3)n2)cc1 [N*2*,N*4*-Diphenyl-pyrimidine-2,4-diamine] |
| 0.304 | N#Cc1c2n(c3c(S)ncnc13)CCCCC2 [4-sulfanylidene-1,6,7,8,9,10-hexahydropyrimido[3,4]pyrrolo[3,5-a]azepine-11-carbonitrile] |
| > 300 | CS(=O)(=O)c1ccccc1-c1nnc(NC(=O)c2ccc3ncsc3c2)o1 |
| > 300 | O=Cc1cn(CCC(=O)O)nc1-c1cccc2ccccc12 [3-(4-formyl-3-naphthalen-1-ylpyrazol-1-yl)propanoic acid] |
| > 300 | CCN(c1ccccc1)S(=O)(=O)c1cc(NC(=O)Nc2ccccc2C#N)ccc1Cl [MLS000395038] |
| 63.8 | CCCn1nc(NC(=O)C(C)(C)C)c2cc3cc(OC)ccc3nc21 [N-(6-methoxy-1-propylpyrazolo[3,4-b]quinolin-3-yl)-2,2-dimethylpropanamide] |
| > 300 | CCN(CC)C(=O)COc1cc(C)cc2oc(=O)cc(-c3ccccc3)c12 [N,N-diethyl-2-(7-methyl-2-oxo-4-phenylchromen-5-yl)oxyacetamide] |
| > 300 | Cc1c(Br)c([N+](=O)[O-])nn1CC(=O)Nc1c(C)n(C)n(-c2ccccc2)c1=O [2-(4-Bromo-5-methyl-3-nitro-pyrazol-1-yl)-N-(1,5-dimethyl-3-oxo-2-phenyl-2,3-dihydro-1H-pyrazol-4-yl)-acetamide] |
| 12.2 | CN(C)CCCNc1ccc(-c2cc(Nc3cccc(Cl)c3)ncn2)cn1 [SMR000463569] |
| > 300 | Cc1nc2nc(=O)c3c(n2[nH]1)NC1=C(C(=O)CC(C)(C)C1)C3c1ccccc1 (stereo not given) [MLS000084334] |
| > 300 | CC(C)CCn1c(CN2CCN(c3cccc(Cl)c3)CC2)nc2c1c(=O)n(C)c(=O)n2C [SMR000017148] |
| > 300 | CC(C)CNC(=O)c1cccc(NC(=O)c2ccc(NC(=O)c3ccco3)cc2)c1 [MLS000088940] |
| > 300 | CC1=C(C#N)C(=O)NC(=O)C1=NNc1ccc(Br)cc1C(=O)O [MLS001213177] |
| > 300 | Fc1ccc(CSc2ccc3nnc(-c4cccnc4)n3n2)cc1 [MLS000624295] |
| 21.5 | Nc1ccc(O)c2c(=O)cc(-c3ccccc3Cl)oc12 [MLS000518334] |
| 9.62 | CCC(C)Nc1nc(N)c([N+](=O)[O-])c(NCc2ccccc2)n1 (stereo not given) |
| > 300 | CCOC(=O)c1ccc(NC(=O)CN(C)S(=O)(=O)c2ccc(Br)s2)cc1 [ethyl 4-[2-[(5-bromanylthiophen-2-yl)sulfonyl-methyl-amino]ethanoylamino]benzoate] |
| 3.62 | Nc1nonc1-n1nnc(C(=O)NN=Cc2ccccc2)c1CN1CCc2ccccc21 [1-(4-amino-1,2,5-oxadiazol-3-yl)-5-(2,3-dihydroindol-1-ylmethyl)-N-[(phenylmethylene)amino]-4-triazolecarboxamide] |
| > 300 | COc1ccc(C2C3=C(CC(C)(C)CC3=O)N=C(C)C2C#N)cc1 (stereo not given) [4-(4-methoxyphenyl)-2,7,7-trimethyl-5-oxidanylidene-1,4,6,8-tetrahydroquinoline-3-carbonitrile] |
| > 300 | COc1cccc2cc(C(=O)CS(=O)(=O)c3ccc(C)cc3)c(=O)oc12 [8-methoxy-3-[2-(4-methylphenyl)sulfonylethanoyl]chromen-2-one] |
| > 300 | COCCOc1ccc(C(F)(F)F)cc1NC(=O)COC(=O)c1cc[n+]([O-])cc1 [[2-[2-(2-methoxyethoxy)-5-(trifluoromethyl)anilino]-2-oxoethyl] 1-oxidopyridin-1-ium-4-carboxylate] |
| > 300 | CC(C)(C)c1ccc(OCC(=O)NCCN2CCCC2)cc1 [2-(4-tert-butylphenoxy)-N-(2-pyrrolidin-1-ylethyl)ethanamide;hydrochloride] |

| EC50 [µM] | SMILES |
| --- | --- |
| > 300 | CCCCc1cc(=O)oc2cc(C)cc(O)c12 |
| > 300 | c1ccc(CCCNCC2COc3ccccc3O2)cc1 (stereo not given) |
| > 300 | O=C(O)c1ccccc1NC(=O)c1ccccc1Nc1ccccc1 [2-[(2-phenylazanylphenyl)carbonylamino]benzoic acid] |
| > 300 | CCC(=O)c1c(CC)c2n3c1CC[C@H]3CCC2 [SMR000469597] |
| 25.1 | O=c1c2ccccc2cnn1-c1nc2ccccc2[nH]1 [MLS001017304] |
| 1.57 | Nc1nonc1-n1nnc(C(=O)NN=Cc2ccccc2Br)c1CN1CCCC1 [SMR000620637] |
| > 300 | O=C(CCSc1nnc(-c2ccncc2)o1)Nc1ccc(F)cc1 [N-(4-fluorophenyl)-3-[(5-pyridin-4-yl-1,3,4-oxadiazol-2-yl)thio]propanamide] |
| > 300 | COc1cccc2c1cc1c(=O)n(CC(=O)N3CCCCCC3)nc(C)n12 [2-[2-(azepan-1-yl)-2-oxidanylidene-ethyl]-9-methoxy-4-methyl-[1,2,4]triazino[4,5-a]indol-1-one] |
| 11.3 | CCCN(CCC)CCCNc1ccc2nnc(-c3ccc(F)cc3)n2n1 [N-[3-(4-fluorophenyl)-[1,2,4]triazolo[4,3-b]pyridazin-6-yl]-N',N'-dipropyl-propane-1,3-diamine] |
| 3.3 | N#Cc1c(N2CCCCC2)nc(N2CCCCC2)c2c1CCN(Cc1ccccc1)C2 [SMR000036037] |
| > 300 | COc1ccc(C(=O)NC(=S)NC2CCCCC2)cc1 |
| 0.775 | CC1=C(C#N)C(=O)NC(=O)C1=NNc1cccc(C)c1 [(5Z)-4-methyl-5-[(3-methylphenyl)hydrazinylidene]-2,6-bis(oxidanylidene)pyridine-3-carbonitrile] |
| 117 | O=C(Nc1ccc(O)c2c(=O)cc(-c3ccccc3Cl)oc12)c1ccc(Cl)c(Cl)c1 |
| > 300 | Nc1nc(NCc2ccco2)nc(NC2CCCCC2)c1[N+](=O)[O-] [MLS000769818] |
| > 300 | Cc1cc(Cl)nc(Cl)c1C(=O)N1CCOCC1 [SMR000307050] |
| > 300 | CC1CCCCN1c1nnc(N)s1 (stereo not given) [5-(2-methyl-1-piperidinyl)-1,3,4-thiadiazol-2-amine] |
| > 300 | COc1cc(/C=N/NC(=O)c2cccc(Cl)c2)ccc1Oc1ccc([N+](=O)[O-])cn1 [MLS000779574] |
| > 300 | COc1cc(C2C3=C(CC(C)(C)CC3=O)N=C(C)C2C#N)ccc1O (stereo not given) [4-(4-hydroxy-3-methoxyphenyl)-2,7,7-trimethyl-5-oxo-1,4,6,8-tetrahydroquinoline-3-carbonitrile] |
| > 300 | COc1ccc(NC(=O)c2sc(S)nc2N)cc1 [4-Amino-2-thioxo-2,3-dihydro-thiazole-5-carboxylic acid (4-methoxy-phenyl)-amide] |
| > 300 | O=C1Nc2cc(C(=O)NCC3CCCO3)ccc2S/C1=C/c1ccccc1F (stereo not given) |
| > 300 | CCN1CCN(c2ccc(S(=O)(=O)N3CCOCC3)cc2NC(=O)c2ccc(Cl)cc2Cl)CC1 [2,4-bis(chloranyl)-N-[2-(4-ethylpiperazin-1-yl)-5-morpholin-4-ylsulfonyl-phenyl]benzamide] |
